Assay results: ChEMBL document CHEMBL1139335, “Enaminones 8: CoMFA and CoMSIA studies on some anticonvulsant enaminones” (Bioorg Med Chem, 2009)
Activity calls are given as the source filed them. No cut-off for these calls is given here.

Test system: Mus musculus
Test: Anticonvulsant activity in mouse assessed as inhibition of pentylenetetrazole-induced seizure at 100 mg/kg
Assay type: functional, organism-based
Set-up: dose 100 mg/kg

Structure (SMILES) | Activity
CC1(C)CC(=O)C=C(NC(=O)c2ccc(C#N)cc2)C1 | Active
CCOC(=O)C1C(=O)C=C(Nc2ccc(Cl)cc2)CC1C (stereo not drawn) | Active
CCOC(=O)C1C(=O)C=C(NC(=O)c2ccc(C)cc2)CC1C (stereo not drawn) | Active
N#Cc1ccc(C(=O)NC2=CC(=O)CCC2)cc1 | Active
CCOC(=O)C1C(=O)C=C(Nc2ccc(C#N)cc2)CC1C (stereo not drawn) | Active
COc1ccc(C(=O)NC2=CC(=O)CC(C)C2)cc1 (stereo not drawn) | Active
COC(=O)C1C(=O)C=C(Nc2ccc(C(F)(F)F)cc2)CC1(C)C (stereo not drawn) | Active
NC1=CC(=O)CCC1 | Active

Test system: Mus musculus
Test: Anticonvulsant activity in mouse assessed as inhibition of pentylenetetrazole-induced seizure at 100 to 300 mg/kg
Assay type: functional, organism-based

Structure (SMILES) | Activity
CCOC(=O)C1C(=O)C=C(Nc2ccc(Cl)cc2Cl)CC1C (stereo not drawn) | Active
CC1CC(=O)C=C(Nc2cccc(Br)c2)C1 (stereo not drawn) | Active
CC(=O)/C=C(\C)Nc1ccc(Cl)cc1 | Active
CCOC(=O)C1C(=O)C=C(Nc2ccc(Cl)c(Cl)c2)CC1C (stereo not drawn) | Active
CC1CC(=O)C=C(Nc2ccc(OC(F)(F)F)cc2)C1 (stereo not drawn) | Active
CC1CC(=O)C=C(Nc2cccc(Cl)c2)C1 (stereo not drawn) | Active
CCOC(=O)C1C(=O)C=C(Nc2ccc(F)cc2)CC1C (stereo not drawn) | Active
CCOC(=O)C1CCC(Nc2cccc(OC(F)(F)F)c2)=CC1=O (stereo not drawn) | Active
COC(=O)C1C(=O)C=C(Nc2ccc(C(F)(F)F)cc2)CC1C (stereo not drawn) | Active
CCOC(=O)C1C(=O)C=C(Nc2cc(C)ccc2OC)CC1C (stereo not drawn) | Active
COC(=O)C1C(=O)C=C(Nc2ccc(Cl)c(Cl)c2)CC1C (stereo not drawn) | Active
CC1CC(=O)C=C(Nc2ccc(Cl)cc2)C1 (stereo not drawn) | Active
COC(=O)C1C(=O)C=C(Nc2ccc(F)cc2)CC1C (stereo not drawn) | Active
COc1ccc(N/C(C)=C/C(C)=O)cc1 | Active
CC(=O)/C=C(\C)Nc1ccc(I)cc1 | Active
COC(=O)C1C(=O)C=C(Nc2ccc(Br)cc2)CC1C (stereo not drawn) | Active
COC(=O)C1C(=O)C=C(Nc2ccc(Cl)cn2)CC1C (stereo not drawn) | Active
CC1CC(=O)C=C(Nc2ccc(F)cc2)C1 (stereo not drawn) | Active
COC(=O)C1C(=O)C=C(Nc2ccc(OC(F)(F)F)cc2)CC1C (stereo not drawn) | Active
CCOC(=O)C1C(=O)C2=C(CC1C)Nc1ccc(Cl)cc1S2 (stereo not drawn) | Active
CCc1ccc(N/C(C)=C/C(C)=O)cc1 | Active
COC(=O)C1C(=O)C=C(Nc2ccccc2F)CC1C (stereo not drawn) | Active
CCOC(=O)C1C(=O)C=C(Nc2ccc(Cl)cn2)CC1C (stereo not drawn) | Active
CC(=O)/C=C(\C)Nc1ccc(Br)cc1 | Active
COC(=O)C1C(=O)C=C(Nc2ccc(Cl)cc2)CC1(C)C (stereo not drawn) | Active
